Measured values published in US20140296316A1, “HYDRATE AND CRYSTAL OF FLUORENE COMPOUNDS” (JAPAN TOBACCO INC., priority 2013, published 2014).

Legend:
human PDHK1 (hPDHK1) = biological target: T1, human PDHK1 (hPDHK1) (Homo sapiens, UniProt Q15118); test: Inhibitory action of PDHK1 activity in vitro (residual PDH activity after kinase reaction); format: biochemical; details: PDH/hPDHK1 complex, PDHK reaction 45 min at room temperature
T1 construct: made in house; host or cells: Escherichia coli BL21(DE3), pET17b vector
Procedure: (§1) The inhibitory action of PDHK activity was assessed indirectly by measuring the residual PDH activity after kinase reaction in the presence of a test compound.
In the case of human PDHK1 (hPDHK1, Genbank Accession No. L42450.1), a 1.3 kbp fragment encoding this protein was isolated from human liver cDNA by polymerase chain reaction (PCR). Modified hPDHK1 cDNA wherein FLAG-Tag sequence was added to the N terminus was prepared by PCR and cloned into a vector (pET17b-Novagen). The recombinant construct was transformed into Escherichia coli (DH5α-TOYOB0). The recombinant clones were identified, and plasmid DNA was isolated and subjected to the DNA sequence analysis. One clone which had the expected nucleic acid sequence was selected for expression work. […]
Then, 10 μL of substrates (5 mmol/L sodium pyruvate, 5 mmol/L Coenzyme A, 12 mmol/L NAD, 5 mmol/L thiamin pyrophosphate, diluted with buffer) were added. The mixture was incubated at room temperature for 90 min, and the residual PDH activity was measured.
The absorbance at 340 nm before and after PDH reaction was measured using a microplate reader to detect NADH produced by the PDH reaction. The hPDHK1 inhibition rate (%) of the test compound was calculated from the formula [{(PDH activity of the test compound−PDH activity of control)/PDH activity of blank−PDH activity of control)}×100]. […]

human PDHK2 (hPDHK2) = biological target: T2, human PDHK2 (hPDHK2) (Homo sapiens, UniProt Q15119); test: Inhibitory action of PDHK2 activity in vitro (residual PDH activity after kinase reaction); format: biochemical; details: PDH/hPDHK2 complex, PDHK reaction 45 min at room temperature
T2 construct: made in house; host or cells: Escherichia coli BL21(DE3), pET17b vector
Procedure: as §1
The recombinant construct was transformed into Escherichia coli (DB5α-TOYOBO). The recombinant clones were identified, and plasmid DNA was isolated and subjected to the DNA sequence analysis. One clone which had the expected nucleic acid sequence was selected for expression work.
For expression of hPDHK2 activity, Escherichia coli strain BL21(DE3) cells (Novagen) were transformed with the pET17b vector containing modified hPDHK2 cDNA. The Escherichia coli were grown to an optical density 0.6 ([…]) at 30° C. Protein expression was induced by the addition of 500 μmol/L isopropyl-β-thiogalactopyranoside. […]
0.05 U/mL PDH and 0.8 μg/mL hPDHK2 were mixed in a buffer (50 mmol/L 3-morpholinopropanesulfonic acid (pH 7.0), 20 mmol/L dipotassium hydrogen phosphate, 60 mmol/L potassium chloride, 2 mmol/L magnesium chloride, 0.4 mmol/L EDTA, and 0.2% Pluronic F-68, 2 mmol/L dithiothreitol), and the mixture was incubated at 4° C. overnight to obtain a PDH/hPDHK2 complex. […] The mixture was incubated at room temperature for 90 min, and the residual PDH activity was measured. The absorbance at 340 nm before and after PDH reaction was measured using a microplate reader to detect NADH produced by the PDH reaction. […]

[1] = Water adsorption and desorption test; format: physicochemical; details: for hygroscopicity: conclusion of the water adsorption and desorption test; for hygroscopicity / moisture absorption under relative humidity 95%: without pre-drying
Procedure: Water adsorption and desorption test was performed using a water equilibrium measuring apparatus (SGA-100, manufactured by VTI).
A water adsorption and desorption test was performed by the following method.
Method 1 (without Pre-Drying):
Form I crystal (about 10 mg) was weighed in a quartz cell, and a weight change ratio was measured when it reached equilibrium at 25° C. and each relative humidity, by using a water equilibrium measuring apparatus (SGA-100, manufactured by VTI).
Test temperature: 25° C. Equilibrating conditions: weight change ratio was not more than 0.03% in 5 min Maximum equilibrating time: 180 min Change of relative humidity: increased from 5% to 95% at 5% intervals, and decreased from 95% to 5% at 5% intervals. Method 2 (with Pre-Drying):
Form I crystal (about 10 mg) was weighed in a quartz cell, dried under a dried nitrogen stream at 60° C., and a weight change ratio was measured when it reached equilibrium at 25° C. and each relative humidity, by using a water equilibrium measuring apparatus (SGA-100, manufactured by VTI).
Test temperature: 25° C. Equilibrating conditions: weight change ratio was not more than 0.03% in 5 min Maximum equilibrating time: 180 min Change of relative humidity: increased from 5% to 95% at 5% intervals, and decreased from 95% to 5% at 5% intervals.
In the water adsorption and desorption test, the measurement was performed under two conditions of “with pre-drying (drying before test)” and “without pre-drying (drying before test)”, wherein humidification and drying were repeated once. […] Therefore, it was assumed that pre-drying completely evaporated crystal water.

[2] = Water adsorption and desorption test; format: physicochemical; details: for weight decrease on pre-drying: pre-dried under a dried nitrogen stream, 60° C.; for weight increase by humidification after drying: with pre-drying, humidification up to relative humidity 10%, 25° C.

T1 sequence (Q15118 29-436): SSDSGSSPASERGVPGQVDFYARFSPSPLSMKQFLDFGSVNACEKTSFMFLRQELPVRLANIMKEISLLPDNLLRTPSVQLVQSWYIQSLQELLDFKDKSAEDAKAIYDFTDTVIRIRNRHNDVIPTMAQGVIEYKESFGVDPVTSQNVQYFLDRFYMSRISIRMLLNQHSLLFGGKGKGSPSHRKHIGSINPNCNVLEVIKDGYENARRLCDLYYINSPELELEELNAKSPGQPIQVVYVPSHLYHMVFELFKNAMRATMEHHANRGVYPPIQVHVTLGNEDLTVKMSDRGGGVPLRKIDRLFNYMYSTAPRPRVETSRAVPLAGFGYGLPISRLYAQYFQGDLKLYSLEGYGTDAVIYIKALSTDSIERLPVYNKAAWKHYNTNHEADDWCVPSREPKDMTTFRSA

| SMILES | IC50 (human PDHK1 (hPDHK1)) [nM] | IC50 (human PDHK2 (hPDHK2)) [nM] | hygroscopicity [1] | moisture absorption under relative humidity 95% ([1]; 25° C.) | weight decrease on pre-drying [2] [%] | weight increase by humidification after drying [2] [%] | weight decrease on pre-drying ([1]; pre-dried under a dried nitrogen stream, 60° C.) [%] | weight increase by humidification after drying ([1]; with pre-drying, humidification up to relative humidity 50%, 25° C.) [%] |
| --- | --- | --- | --- | --- | --- | --- | --- | --- |
| CC(CO)(CO)n1cc(-c2cc(F)cc3c2-c2ccccc2[C@]3(O)C(F)(F)F)cn1 [Form I crystal of compound (Ah), 0.5 hydrate of 2-{4-[(9R)-2-fluoro-9-hydroxy-9-(trifluoromethyl)-9H-fluoren-4-yl]-pyrazol-1-yl}-2-methyl-propane-1,3-diol] | 26 | 14 | does not have hygroscopicity | remarkable moisture absorption was not found | 2.15 | 2.44 |  |  |
| CC(CO)(CO)n1cc(-c2cc(F)cc3c2-c2ccccc2[C@]3(O)C(F)(F)F)cn1 [Form V crystal of compound (Ah), 0.5 hydrate of 2-{4-[(9R)-2-fluoro-9-hydroxy-9-(trifluoromethyl)-9H-fluoren-4-yl]-pyrazol-1-yl}-2-methyl-propane-1,3-diol] |  |  | does not have hygroscopicity | remarkable moisture absorption was not found | 2.36 | 2.46 |  |  |
| Cc1cc(-c2cnn(C(CO)(CO)CO)c2)c2c(c1)[C@@](O)(C(F)(F)F)c1ccccc1-2 [Form IVb crystal of compound (Bh), 2 hydrate of 2-hydroxymethyl-2-{4-[(9R)-9-hydroxy-2-methyl-9-(trifluoromethyl)-9H-fluoren-4-yl]-pyrazol-1-yl}-propane-1,3-diol] |  | 20 | does not have hygroscopicity | remarkable moisture absorption was not found |  |  | 7.75 | 7.93 |
